Results as given in ChEMBL document CHEMBL1765046, “Small molecule inhibitor of the RPA70 N-terminal protein interaction domain discovered using in silico and in vitro methods” (Bioorg Med Chem, 2011).
Activity calls are given as the source filed them. The rule behind the calls is not given here.

Legend:
[1] = molecular target: Replication protein A 70 kDa DNA-binding subunit (Homo sapiens) (UniProt P27694); assay: Inhibition of recombinant human N-terminal domain of RPA70 DNA binding domain-F binding to 30-mer single strand DNA at <100 uM preincubated for 5mins before ssDNA addition measured after 30 mins by electrophoretic mobility shift assay
[2] = molecular target: Cellular tumor antigen p53/Replication protein A 70 kDa DNA-binding subunit (Homo sapiens, UniProt P04637+P27694); assay: Inhibition of GST-tagged p53/recombinant human N-terminal domain of RPA70 DNA binding domain interaction by ELISA-like plate binding assay
[3] = molecular target: Replication protein A 70 kDa DNA-binding subunit (Homo sapiens) (UniProt P27694); assay: Inhibition of recombinant human N-terminal domain of RPA70 DNA binding domain-F binding to 30-mer double strand DNA at <100 uM preincubated for 5mins before dsDNA addition measured after 30 mins by electrophoretic mobility shift assay

Sequence of Replication protein A 70 kDa DNA-binding subunit (Homo sapiens) (P27694 whole entry, the tested form may be a part): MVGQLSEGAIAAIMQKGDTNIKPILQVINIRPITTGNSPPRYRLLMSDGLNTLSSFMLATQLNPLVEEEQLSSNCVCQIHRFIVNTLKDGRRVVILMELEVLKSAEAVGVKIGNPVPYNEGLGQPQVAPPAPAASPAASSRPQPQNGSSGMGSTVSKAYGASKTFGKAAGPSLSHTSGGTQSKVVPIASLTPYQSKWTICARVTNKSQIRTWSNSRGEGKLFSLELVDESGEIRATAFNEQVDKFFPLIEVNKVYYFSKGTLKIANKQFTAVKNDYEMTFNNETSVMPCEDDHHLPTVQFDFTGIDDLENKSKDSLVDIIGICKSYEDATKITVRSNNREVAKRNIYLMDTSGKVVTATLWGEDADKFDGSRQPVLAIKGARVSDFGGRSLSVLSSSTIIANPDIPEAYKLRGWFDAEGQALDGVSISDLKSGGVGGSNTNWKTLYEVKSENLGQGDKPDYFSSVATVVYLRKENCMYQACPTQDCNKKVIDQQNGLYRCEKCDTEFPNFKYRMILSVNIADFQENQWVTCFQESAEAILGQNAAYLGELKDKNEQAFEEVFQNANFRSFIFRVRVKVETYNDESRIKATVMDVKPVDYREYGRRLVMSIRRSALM
Sequence of Cellular tumor antigen p53/Replication protein A 70 kDa DNA-binding subunit (P04637 whole entry, the tested form may be a part): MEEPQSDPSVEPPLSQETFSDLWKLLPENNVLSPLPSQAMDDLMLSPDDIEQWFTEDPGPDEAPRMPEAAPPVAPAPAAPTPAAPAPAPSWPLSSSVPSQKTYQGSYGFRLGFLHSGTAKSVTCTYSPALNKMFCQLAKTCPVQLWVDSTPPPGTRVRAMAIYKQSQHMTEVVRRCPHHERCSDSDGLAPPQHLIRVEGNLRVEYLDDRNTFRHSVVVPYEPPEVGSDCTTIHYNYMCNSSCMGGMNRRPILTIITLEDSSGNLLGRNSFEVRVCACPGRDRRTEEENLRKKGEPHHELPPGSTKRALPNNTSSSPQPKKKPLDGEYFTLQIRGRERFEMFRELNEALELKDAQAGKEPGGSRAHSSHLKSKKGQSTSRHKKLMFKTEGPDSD
Sequence of Cellular tumor antigen p53/Replication protein A 70 kDa DNA-binding subunit (P27694 whole entry, the tested form may be a part): as the sequence (P27694 whole entry, the tested form may be a part) above

Structure (SMILES): CC(C)C1=CC23CCC4C(C)(C(=O)O)CCCC4(C)C2CC1C(C(=O)O)C3C(=O)O (stereo not drawn)
- inhibition [1]: inactive
- IC50 [2]: 10 µM
- inhibition [3]: Active
